Assay results reported in the NIST ThermoML archive (doi:10.1016/j.tca.2016.07.008).
Numbers after ± are expanded uncertainties.

Experiments:
[1] = Crystal; DTA
[2] = Molar enthalpy of transition or fusion; conditions: Crystal; DSC

| Normal melting temperature [1] [°C] | Molar enthalpy of transition or fusion [2] [kcal/mol] | Structure (SMILES) |
| --- | --- | --- |
| 236.70 ± 2 | 11.9 ± 0.263 | COc1cccc(/C=N/NC(=O)c2ccncc2)c1O [N'-(2-hydroxy-3-methoxybenzylidene)isonicotinohydrazide] |
| 248.20 ± 2 | 10.9 ± 0.239 | O=C(N/N=C/c1ccccc1O)c1ccncc1 [N'-(2-hydroxybenzylidene)isonicotinohydrazide] |
